Legend:
human erythrocytes = assay: Hemolysis analysis; format: cell-based; conditions: 1 h, 37 °C, absorbance 405 nm, 0.2–25 μM final concentration, two independent experiments
Source text: Considering the therapeutic potential of TFF3, it was important to determine any cytotoxic and hemolytic effects early on to avoid problems in later stages of drug development. We therefore assessed cytotoxicity on HEK-293 cells and hemolytic effects in human erythrocytes. We treated the cells with TFF3(C^57Acm) and TFF3 homodimer and used resazurin, a blue dye that produces strong fluorescence when reduced by living cells, as the readout of the number of viable cells.[60] In the hemolytic assay, we evaluated hemoglobin release, an indicator of erythrocyte lysis, upon exposure to the peptides.
Monomeric and homodimeric TFF3 were serially diluted twofold in 0.9% NaCl and seeded (25 μL) in a 384-well polypropylene plate (0.2–25 μM final concentration). […] The cells were counted using a Neubauer hemocytometer and then diluted to 1 × 10^8/mL in 0.9% NaCl. […] Following incubation, the plates were centrifuged at 1000g for 10 min to pellet cells and debris and then 25 μL of the supernatant was transferred into a 384-well flat-bottom PS plate and absorbance (Abs) was read at 405 nm using a Tecan M1000 Pro monochromator plate reader. Percent hemolysis was calculated using the following equation: Hemolysis (%) = (Abssample – Absnegative/Abspositive – Absnegative) × 100. […]

LINGO2 = biological target: T1, LINGO2 (Homo sapiens, UniProt Q7L985); assay: BRET assay of LINGO2 dimerization in HEK-293 cells; format: cell-based; conditions: HEK-293 coexpressing LINGO2-YFP and LINGO2-Rluc; 0.1–10 μM peptide, 20 min incubation; coelenterazine 5 μM; n = 4
T1 construct: expressed in transfected cells; host or cells: HEK-293, transient transfection by the calcium phosphate method
T1 sequence (Q7L985 28-606) 1: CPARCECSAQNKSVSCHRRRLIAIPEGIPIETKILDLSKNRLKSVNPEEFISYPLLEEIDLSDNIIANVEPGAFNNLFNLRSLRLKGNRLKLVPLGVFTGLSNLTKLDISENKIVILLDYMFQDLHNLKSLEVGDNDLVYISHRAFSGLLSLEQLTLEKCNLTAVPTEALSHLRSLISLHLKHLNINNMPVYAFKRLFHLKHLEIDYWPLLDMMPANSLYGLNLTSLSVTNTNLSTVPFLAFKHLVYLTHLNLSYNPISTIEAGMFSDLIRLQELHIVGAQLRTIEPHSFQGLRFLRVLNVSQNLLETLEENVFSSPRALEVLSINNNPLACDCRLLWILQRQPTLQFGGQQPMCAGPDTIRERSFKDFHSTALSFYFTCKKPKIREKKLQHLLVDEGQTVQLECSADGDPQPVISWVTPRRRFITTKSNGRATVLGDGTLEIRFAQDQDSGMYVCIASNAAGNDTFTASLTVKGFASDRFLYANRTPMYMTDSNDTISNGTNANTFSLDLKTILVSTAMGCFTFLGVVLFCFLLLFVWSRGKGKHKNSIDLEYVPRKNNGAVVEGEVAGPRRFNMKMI
T1 sequence (Q7L985 28-606) 2: T1 sequence (Q7L985 28-606) 1
Source text: LINGO2 has also been put forward as a potential TFF3 receptor.[38] We thus evaluated whether TFF3(C^57Acm) or TFF3 homodimer could disturb LINGO2 dimerization via a bioluminescence resonance energy transfer (BRET) assay. This method allows the study of protein interactions using energy transfer between a light-emitting enzyme and a fluorescent acceptor protein.[65] LINGO2 fused with Renilla luciferase (Rluc; protein donor) or yellow fluorescent protein (YFP; protein acceptor) were co-expressed in HEK-293 cells and BRET signal detected after adding the luminescent substrate coelenterazine. […] We then evaluated whether the TFF3 constructs could promote changes of this basal BRET signal by inducing conformational change within the dimers and/or change the dimerization state of LINGO2.
HEK-293 cells were cultured with 10% FBS at 37 °C and 5% CO2 in DMEM for 72–96 h. […] Then, total luminescence was measured by following coelenterazine addition (final concentration 5 μM). BRET signal was measured in four repeats and calculated by determining the emission ratio at 530/480 nm on cells coexpressing donor and acceptor and by subtracting the emission background BRET signal ratio (530/480 nm) of cells expressing only donor protein, then multiplying by 1,000 to obtain results in millBRET units (mBU).

Compound: CC[C@H](C)[C@@H]1NC(=O)[C@H](CCCNC(=N)N)NC(=O)[C@H](CO)NC(=O)[C@H](CC(=O)O)NC(=O)[C@H](Cc2ccccc2)NC(=O)[C@@H]2CSSC[C@H](NC(=O)[C@H](CCC(N)=O)NC(=O)[C@H](CC(N)=O)NC(=O)[C@H](C)NC(=O)[C@H](CO)NC(=O)[C@H](CC(C)C)NC(=O)CNC(=O)[C@@H](NC(=O)[C@H](Cc3ccc(O)cc3)NC(=O)[C@H](CCC(=O)O)NC(=O)[C@@H](N)CCC(=O)O)C(C)C)C(=O)N[C@@H](C)C(=O)N[C@@H](C(C)C)C(=O)N3CCC[C@H]3C(=O)N[C@@H](C)C(=O)N[C@@H](CCCCN)C(=O)N[C@@H](CC(=O)O)C(=O)N[C@@H](CCCNC(=N)N)C(=O)N[C@@H](C(C)C)C(=O)N[C@@H](CC(=O)O)C(=O)N[C@H]3CSSC[C@H](NC(=O)CNC(=O)[C@H](CCCNC(=N)N)NC(=O)[C@H](CC(N)=O)NC(=O)[C@H](CC(N)=O)NC(=O)[C@H](CSSC[C@@H](C(=O)N[C@@H](Cc4ccccc4)C(=O)N[C@@H](CCCCN)C(=O)N4CCC[C@H]4C(=O)N[C@@H](CC(C)C)C(=O)N[C@@H](CCC(N)=O)C(=O)N[C@@H](CCC(=O)O)C(=O)N[C@@H](C)C(=O)N[C@@H](CCC(=O)O)C(=O)N[C@@H](CSCNC(C)=O)C(=O)N[C@H](C(=O)N[C@@H](Cc4ccccc4)C(=O)O)[C@@H](C)O)NC(=O)[C@H](Cc4c[nH]c5ccccc45)NC(=O)[C@@H]4CCCN4C(=O)[C@H](C(C)C)NC(=O)CNC(=O)[C@@H]4CCCN4C1=O)NC(=O)[C@H](CCC(=O)O)NC(=O)[C@H](CCCCN)NC(=O)[C@@H]1CCCN1C(=O)[C@H]([C@@H](C)O)NC(=O)[C@H](C(C)C)NC(=O)[C@H](Cc1c[nH]cn1)NC(=O)[C@@H]1CCCN1C(=O)[C@H](Cc1ccc(O)cc1)NC(=O)CNC3=O)C(=O)N2 [TFF3(C^57Acm)]
- concentration up to which no hemolytic effect was displayed (human erythrocytes): > 25 µM
- modification of LINGO2 BRET signal (LINGO2): no statistically significant (p > 0.05) modification of BRET signal
